Like-named read-outs stand apart in the source and are kept apart here.
Columns and labels:
Assay type in all cases: in vivo
Sphaerotheca fuliginea = experiment: Sphaerotheca test (cucumber)/protective; settings: for pest or weed control at 2.5 g/ha: application rate 2.5 g/ha
Method: Sphaerotheca Test (Cucumber)/Protective
(§1) • Solvent: 47 parts by weight of acetone • Emulsifier: 3 parts by weight of alkylaryl polyglycol ether
After the spray coating has dried on, the plants are inoculated with an aqueous spore suspension of Sphaerotheca fuliginea. The plants are then placed in a greenhouse at about 23° C. and a relative atmospheric humidity of about 70%.
Evaluation is carried out 10 days after the inoculation.

Puccinia recondita = experiment: Puccinia test (wheat)/protective; settings: protective, single active compound, application rate 25 g/ha, 10 days after inoculation
Method: Puccinia Test (Wheat)/Protective
(§2) • Solvent: 10 parts by weight of N-methyl-pyrrolidone • Emulsifier: 0.6 parts by weight of alkylaryl polyglycol ether
(§3) To produce a suitable preparation of active compound, 1 part by weight of active compound or active compound combination is mixed with the stated amounts of solvent and emulsifier, and the concentrate is diluted with water to the desired concentration, or a commercial formulation of active compound or active compound combination is diluted with water to the desired concentration.
To test for protective activity, young plants are inoculated with a spore suspension of Puccinia recondita in a 0.1% strength aqueous agar solution. After the spray coating had dried on, the plants are sprayed with the active compound preparation at the stated application rate.
The plants remain in an incubation cabin at 20° C. and 100% relative atmospheric humidity for 24 hours.
The plants are then placed in a greenhouse at a temperature of about 20° C. and a relative atmospheric humidity of about 80% to promote the development of rust pustules.
(§4) Evaluation is carried out 10 days after the inoculation. 0% means an efficacy which corresponds to that of the control, whereas an efficacy of 100% means that no infection is observed.

Leptosphaeria nodorum = Leptosphaeria nodorum test (wheat)/protective; settings: protective, single active compound, application rate 25 g/ha, 10 days after inoculation
Method: Leptosphaeria nodorum Test (Wheat)/Protective
as §2, §3
(§5) To test for protective activity, young plants are sprayed with the active compound preparation at the stated application rate.
After the spray coating has dried on, the plants are sprayed with a spore suspension of Leptosphaeria nodorum. The plants remain in an incubation cabin at 20° C. and 100% relative atmospheric humidity for 48 hours.
The plants are then placed in a greenhouse at a temperature of about 15° C. and a relative atmospheric humidity of about 80%.
as §4

[1] = system: Erysiphe graminis f. sp. hordei; experiment: Erysiphe test (barley)/curative; settings: curative, single active compound, application rate 25 g/ha, evaluation 7 days after inoculation
Method: Erysiphe Test (Barley)/Curative
as §2, §3
To test for curative activity, young plants are dusted with spores of Erysiphe graminis f. sp. hordei. 48 hours after the inoculation, the plants are sprayed with the active compound preparation at the stated application rate.
(§6) The plants are placed in a greenhouse at a temperature of about 20° C. and a relative atmospheric humidity of about 80% to promote the development of mildew pustules.
(§7) Evaluation is carried out 7 days after the inoculation. 0% means an efficacy which corresponds to that of the control, whereas an efficacy of 100% means that no infection is observed.

Fusarium nivale = Fusarium nivale test (triticale)/seed treatment; settings: dry seed dressing, single active compound, about 3 weeks after sowing
Method: Fusarium nivale Test (Triticale)/Seed Treatment
(§8) The active compounds are applied as a dry seed dressing. This is prepared by extending the respective active compound or the active compound combination with ground minerals to give a finely pulverulent mixture which ensures uniform distribution on the seed surface.
(§9) To dress the seed, the infected seed together with the seed dressing is shaken for 3 minutes in a sealed glass flask.
2×100 corns of wheat are sown at a depth of 1 cm in standard soil and cultivated in a greenhouse at a temperature of about 10° C. and a relative atmospheric humidity of about 95% in seed trays which receive a light regimen of 15 hours per day.
(§10) About 3 weeks after sowing, the plants are evaluated for symptoms. 0% means an efficacy which corresponds to that of the control, whereas an efficacy of 100% means that no infection is observed.

[2] = system: Erysiphe graminis f. sp. tritici; experiment: Erysiphe test (wheat)/curative; settings: curative, single active compound, 7 days after inoculation
Method: Erysiphe Test (Wheat)/Curative
as §2, §3
To test for curative activity, young plants are dusted with spores of Erysiphe graminis f. sp. tritici. 48 hours after the inoculation, the plants are sprayed with the active compound preparation at the stated application rate.
(§11) The plants are then placed in a greenhouse at a temperature of about 20° C. and a relative atmospheric humidity of about 80% to promote the development of mildew pustules.
as §7

[3] = system: Erysiphe graminis f. sp. tritici; experiment: Erysiphe test (wheat)/protective; settings: protective, single active compound, application rate 6.25 g/ha, 7 days after inoculation
Method: Erysiphe Test (Wheat)/Protective
as §2, §3, §5
After the spray coating has dried on, the plants are dusted with spores of Erysiphe graminis f. sp. tritici.
as §11, §7

Rhizoctonia solani = Rhizoctonia solani test (cotton)/seed treatment; settings: dry seed dressing, single active compound, application rate 25 g/ha, evaluation after 8 days
Method: Rhizoctonia solani Test (Cotton)/Seed Treatment
as §8, §9
2×50 corns of seed are sown at a depth of 2 cm in standard soil infected with Rhizoctonia solani, and the seeds are cultivated in a greenhouse at a temperature of about 22° C. in seed trays which receive a light regimen of 15 hours per day.
Evaluation is carried out after 8 days. 0% means an efficacy which corresponds to that of the control, whereas an efficacy of 100% means that no infection is observed.

[4] = system: Erysiphe graminis f. sp. hordei; experiment: Erysiphe test (barley)/protective; settings: protective per Example 4 (table title prints curative), single active compound, application rate 25 g/ha, 7 days after inoculation
Method: Erysiphe Test (Barley)/Protective
as §2, §3, §5
After the spray coating has dried on, the plants are dusted with spores of Erysiphe graminis f. sp. hordei.
as §6, §7

Fusarium culmorum = Fusarium culmorum test (wheat)/seed treatment; settings: dry seed dressing, single active compound, application rate 75 g/ha as printed, about 3 weeks after sowing
Method: Fusarium culmorum Test (Wheat)/Seed Treatment
as §8, §9
2×100 corns of wheat are sown at a depth of 1 cm in standard soil and cultivated in a greenhouse at a temperature of about 18° C. and a relative atmospheric humidity of about 95% in seed trays which receive a light regimen of 15 hours per day.
as §10

Venturia inaequalis = experiment: Venturia test (apple)/protective; settings: protective, single active compound, application rate 1 g/ha, evaluation 12 days after inoculation
Method: Venturia Test (Apple)/Protective
as §1, §3
To test for protective activity, young plants are sprayed with the active compound preparation at the stated application rate. After the spray coating has dried on, the plants are inoculated with an aqueous konidia suspension of the causative organism of apple scab Venturia inaequalis and then remain in an incubation cabin at about 20° C. and 100% relative atmospheric humidity for one day.
The plants are then placed in a greenhouse at about 21° C. and a relative atmospheric humidity of about 90%.
Evaluation is carried out 12 days after the inoculation. 0% means an efficacy which corresponds to that of the control, whereas an efficacy of 100% means that no infection is observed.

[5] = Podosphaera fuliginea, 240 h, cucumber, protective, single active compound, evaluation 10 days after inoculation, read-out: Efficacy in %
[6] = application rate 75 g/ha as printed
[7] = Podosphaera fuliginea, 240 h, cucumber, protective, single active compound, application rate 12.5 g/ha, evaluation 10 days after inoculation, read-out: Efficacy in %
[8] = Podosphaera fuliginea, 240 h, cucumber, protective, single active compound, application rate 25 g/ha, evaluation 10 days after inoculation, read-out: Efficacy in %

CO/N=C(\C1=NOCCO1)c1ccccc1Oc1ncnc(Oc2ccccc2Cl)c1F [(XIV)]
pest or weed control at 2.5 g/ha (Sphaerotheca fuliginea; [5]): 22% | Efficacy in % (Puccinia recondita): 94% | Efficacy in % (Leptosphaeria nodorum): 87% | Efficacy in % [1]: 75% | Efficacy in % (Fusarium nivale; [6]): 94% | Efficacy in % ([2]; application rate 12.5 g/ha): 0%

CC1(C(=O)Nc2ccc(O)c(Cl)c2Cl)CCCCC1 [(VIII)]
pest or weed control at 12.5 g/ha (Sphaerotheca fuliginea; [7]): 0%

COc1ccc(C(=CC(=O)N2CCOCC2)c2ccc(Cl)cc2)cc1OC [(XVIII)]
pest or weed control at 12.5 g/ha (Sphaerotheca fuliginea; [7]): 0%

CO/N=C(/C(=O)OC)c1ccccc1COc1ccccc1C [(XIII)]
pest or weed control at 2.5 g/ha (Sphaerotheca fuliginea; [5]): 57% | Efficacy in % ([2]; application rate 6.25 g/ha): 94%

N#Cc1c(Cl)c(Cl)c(Cl)c(C#N)c1Cl [(XVII)]
pest or weed control at 25 g/ha (Sphaerotheca fuliginea; [8]): 0%

N#Cc1c[nH]cc1-c1cccc2c1OC(F)(F)O2 [(XXIb), 4-(2,2-difluoro-1,3-benzodioxol-7-yl)-1H-pyrrole-3-carbonitrile]
Efficacy in % ([2]; application rate 6.25 g/ha): 38%

CN(C)S(=O)(=O)N(SC(F)(Cl)Cl)c1ccccc1 [(IVa)]
pest or weed control at 25 g/ha (Sphaerotheca fuliginea; Podosphaera fuliginea, 240 h, read-out: Efficacy in %): 0%

CC12CC1(C)C(=O)N(c1cc(Cl)cc(Cl)c1)C2=O (centres unmarked) [(XV)]
pest or weed control at 12.5 g/ha (Sphaerotheca fuliginea; [7]): 0%

CC(C)(C)C(O)(CCc1ccc(Cl)cc1)Cn1cncn1 (centres unmarked) [(III)]
pest or weed control at 2.5 g/ha (Sphaerotheca fuliginea; [5]): 50% | Efficacy in % [3]: 57% | Efficacy in % (Rhizoctonia solani): 27% | Efficacy in % ([2]; application rate 25 g/ha): 88%

CC(C)(C)C(O)C(Oc1ccc(Cl)cc1)n1cncn1 (centres unmarked) [(IIb), 1-(4-chloro-phenoxy)-3,3-dimethyl-1-(1,2,4-triazol-1-yl)-butan-2-ol]
pest or weed control at 2.5 g/ha (Sphaerotheca fuliginea; [5]): 80% | Efficacy in % ([2]; application rate 25 g/ha): 81%

zinc propylene-1,2-bis-(dithiocarbamate) [(VI)]
Efficacy in % (Sphaerotheca fuliginea; cucumber, protective, single active compound, application rate 25 g/ha, evaluation 10 days after inoculation): 0%

Cc1cc(C2CC2)nc(Nc2ccccc2)n1 [(XVIb)]
pest or weed control at 25 g/ha (Sphaerotheca fuliginea; [8]): 0% | Efficacy in % ([2]; application rate 12.5 g/ha): 0%

O=C1c2ccccc2C(=O)N1SC(Cl)(Cl)Cl [(XIX)]
pest or weed control at 25 g/ha (Sphaerotheca fuliginea; [8]): 0%

CCC(C)(NC(=O)c1cc(Cl)c(C)c(Cl)c1)C(=O)CCl (centres unmarked) [(XXIV)]
pest or weed control at 12.5 g/ha (Sphaerotheca fuliginea; [7]): 0%

CCCN(CC)CC1COC2(CCC(C(C)(C)C)CC2)O1 (centres unmarked) [(XI), 8-t-butyl-2-(N-ethyl-N-n-propyl-amino)-methyl-1,4-dioxaspiro-[5,4]-decane]
Efficacy in % (Sphaerotheca fuliginea; cucumber, protective, single active compound, application rate 12.5 g/ha, evaluation 10 days after inoculation): 0% | Efficacy in % ([2]; application rate 12.5 g/ha): 0%

N#Cc1c[nH]cc1-c1cccc(Cl)c1Cl [(XXIa), 4-(2,3-dichlorophenyl)-pyrrole-3-carbonitrile]
Efficacy in % (Fusarium nivale; application rate 25 g/ha): 0%

CCCOC(=O)NC(C(=O)NC(C)c1ccc(C)cc1)C(C)C (centres unmarked) [(IX)]
pest or weed control at 12.5 g/ha (Sphaerotheca fuliginea; [7]): 13%

CC(C)(C)C(=O)C(Oc1ccc(Cl)cc1)n1cncn1 (centres unmarked) [(IIa), 1-(4-chloro-phenoxy)-3,3-dimethyl-1-(1,2,4-triazol-1-yl)-butane-2-one]
pest or weed control at 2.5 g/ha (Sphaerotheca fuliginea; [5]): 37%

CO/C=C(/C(=O)OC)c1ccccc1Oc1cc(Oc2ccccc2C#N)ncn1 [(XII)]
pest or weed control at 2.5 g/ha (Sphaerotheca fuliginea; [5]): 59% | Efficacy in % [4]: 92%

CSC(=O)c1cccc2nnsc12 [(X)]
pest or weed control at 2.5 g/ha (Sphaerotheca fuliginea; [5]): 0%

Cc1ccc(N(SC(F)(Cl)Cl)S(=O)(=O)N(C)C)cc1 [(IVb)]
pest or weed control at 25 g/ha (Sphaerotheca fuliginea; [8]): 0%

CC(C)(C)C(O)C(Oc1ccc(-c2ccccc2)cc1)n1cncn1 (centres unmarked) [(IIc), 1-(4-phenyl-phenoxy)-3,3-dimethyl-1-(1,2,4-triazol-1-yl)-butan-2-ol]
pest or weed control at 2.5 g/ha (Sphaerotheca fuliginea; [5]): 0% | Efficacy in % (Rhizoctonia solani): 0% | Efficacy in % (Fusarium culmorum): 27%

OC(Cc1ccccc1Cl)(Cn1nc[nH]c1=S)C1(Cl)CC1 (centres unmarked) [(I), 2-[2-(1-chlorocyclopropyl)-3-(2-chlorophenyl)-2-hydroxypropyl]-2,4-dihydro-[1,2,4]-triazole-3-thione]
pest or weed control at 0.5 g/ha (Sphaerotheca fuliginea; Podosphaera fuliginea, 240 h, cucumber, protective, single active compound, application rate 0.5 g/ha, evaluation 10 days after inoculation, read-out: Efficacy in %): 0% | pest or weed control at 2.5 g/ha (Sphaerotheca fuliginea; [5]): 21% | Efficacy in % [4]: 83% | Efficacy in % (Puccinia recondita): 38% | Efficacy in % [3]: 57% | Efficacy in % (Leptosphaeria nodorum): 62% | Efficacy in % (Venturia inaequalis): 1% | Efficacy in % [1]: 81% | Efficacy in % (Rhizoctonia solani): 19% | Efficacy in % (Fusarium nivale; application rate 25 g/ha): 0% | Efficacy in % (Fusarium nivale; [6]): 14% | Efficacy in % (Fusarium culmorum): 32% | Efficacy in % ([2]; application rate 6.25 g/ha): 25% | Efficacy in % ([2]; application rate 12.5 g/ha): 50% | Efficacy in % ([2]; application rate 25 g/ha): 75%

Cc1cc(C)nc(Nc2ccccc2)n1 [(XVIa), pyrimethanil]
pest or weed control at 25 g/ha (Sphaerotheca fuliginea; [8]): 0%
